Reference: US11833137B2, “Substituted chromenones, IRE1 inhibitors, and methods of using same” (The Wistar Institute, priority 2018, dated 2023)
Entries after “also recorded” stand apart in the source; their conditions may differ.

Legend:
[1] = tested on: XBP-1s expression, 5TGM1 cells; assay: XBP-1s immunoblot in 5TGM1 multiple myeloma cells; assay type: cell-based, mouse; conditions: for suppression of XBP-1s expression, long term: 10 μM for a course of 3 days
Description: 5TGM1 mouse multiple myeloma cells, primary mouse B cells, primary mouse Eμ-TCL1 CLL cells, and human CLL cell lines (MEC2 and WaC3) were cultured at 37° C. in a 5% CO2 incubator using RPMI 1640 media (Gibco) supplemented with 10% heat-inactivated FBS, 2 mM L-glutamine, 100 U/mL penicillin G sodium, 1 mM sodium pyruvate, 0.1 mM non-essential amino acids, 100 μg/mL streptomycin sulfate and 0.1 mM β-mercaptoethanol (β-ME).
Cells were lysed using RIPA buffer (10 mM Tris-HCl, pH 7.4, 150 mM NaCl, 1% NP-40, 0.5% sodium deoxycholate, 0.1% SDS, and 1 mM EDTA) supplemented with protease inhibitors (Roche). Protein concentrations were determined by BCA assays (Pierce).
Samples were boiled in SDS-PAGE sample buffer (62.5 mM Tris-HCl, pH 6.8, 2% SDS, 10% glycerol, 0.1% bromophenol blue) with β-ME and analyzed by SDS-PAGE. Proteins were transferred to nitrocellulose membranes, blocked in 5% nonfat milk (wt/vol in PBS), and immunoblotted with indicated primary antibodies and appropriate horseradish peroxidase-conjugated secondary antibodies. Immunoblots were developed using Western Lighting Chemiluminescence Reagent (PerkinElmer).
To develop inhibitors with improved potency to target the IRE1/XBP-1 pathway, tricyclic chromenone-based IRE1 RNase inhibitors with different amine group (R^1) were synthesized and compared: allyloxycarbonyl (alloc) in B-H09 (1), —H in C-B06 (2), and —CH3 in C-D06 (3) (FIG. 1A). 5TGM1 multiple myeloma cells were chosen to evaluate inhibitory effects of these inhibitors because they have constitutively activated IRE1/XBP-1 pathways.

[2] = tested on: XBP-1s expression, CD5+ CLL cells from Eμ-TCL1 mice; assay: XBP-1s immunoblot in primary CLL cells; assay type: cell-based, mouse; conditions: LPS-stimulated, 20 μM 16 h, then 0, 50 or 100 μM hydrogen peroxide 4 h
Description: (§1) FIGS. 5A-5J illustrate the finding that installation of a boronate cage cleavable by H2O2 stabilizes the 1,3-dioxane acetal protective group of D-F07 to allow for temporal inhibition of XBP-1s upon contact with H2O2. (FIG. 5A) A scheme showing that installation of a boronate-caged group stabilizes the 1,3-dioxane acetal protective group to allow for H2O2-mediated release of intact D-F07. (FIG. 5B) The fluorescence of BC-D-F07a (2.5 μM in the DMSO/PBS solution (v/v=1:99), Ex=360 nm) increases upon incubation with 0 to 200 μM hydrogen peroxide at room temperature for 1 h. (FIG. 5C) The fluorescence of BC-D-F07b (2.5 μM in the DMSO/PBS solution (v/v=1:99), Ex=360 nm) increases upon incubation with 0 to 2 mM hydrogen peroxide at 37° C. for 1 h. […] I0 was the initial fluorescence intensity of D-F07, BC-D-F07a or BC-D-F07b at 0 h. (FIG. 5E) The levels of hydrogen peroxide produced by 5TGM1, 72-h LPS-stimulated primary CLL, MEC2, and WaC3 cells were measured by Amplex Red with or without the addition of extracellular catalase (500 U/mL). (FIG. 5F) 5TGM1 cells were treated with BC-D-F07a at increasing concentrations for 24 h, lysed, and analyzed for the expression of indicated proteins by immunoblots. […] Cells were lysed and analyzed for the expression of indicated proteins by immunoblots. […] Cells were lysed and analyzed for the expression of indicated proteins by immunoblots. […]

[3] = tested on: XBP-1s expression, MEC2 cells; assay: XBP-1s immunoblot in MEC2 cells; assay type: cell-based, human; conditions: 20 μM 16 h, then hydrogen peroxide 4 h
Description: as §1

[4] = tested on: 5TGM1 cells; assay: Cell proliferation XTT assay, 5TGM1; assay type: cell-based, mouse
Description: 5TGM1 cells were suspended in phenol red-free RPMI media, seeded in 96-well cell culture plates, and treated with indicated IRE1 inhibitors (20 μM, unless indicated otherwise). At indicated time points, cells were spun down and cell proliferation was assessed by XTT assays (Roche) according to the manufacturer's instructions. Briefly, 50 μl XTT labeling reagent, 1 μl electron-coupling reagent, and 100 μl phenol red-free RPMI media were combined and applied to each well of the 96-well plates. Cells were incubated for 4 h in a CO2 incubator to allow for the yellow tetrazolium salt XTT to be cleaved by mitochondrial dehydrogenases of metabolically active cells to form the orange formazan dye, which can be quantified at 492 nm using a BioTek SYNERGY™ NEO2 Multimode Reader.

[5] = Fluorescence stability (decomposition) in aqueous solution; assay type: physicochemical; conditions: aqueous solution, 37° C., 0 to 48 h, versus D-F07
Description: (FIG. 2B) 5TGM1 cells were treated with DMSO or with 20 μM 2, 4, 3, or 7 dissolved in DMSO for 3 days and subjected to XTT assays. Percentages of growth were determined by comparing treated groups with control groups (DMSO). Each data point derived from four independent groups receiving exactly the same treatment was plotted as mean±SD. Results are representative of three independent experiments. […] The values of I/I0 were plotted as a function of time and shown in the inset. I0 was the initial fluorescence intensity of 4 at 0 h. […] The values of I/I0 were plotted as a function of time and shown in the inset. I0 was the initial fluorescence intensity of 5 at 0 h. […] (FIG. 2G) The decomposition rates of 7 and 8 were plotted as a function of time in RPMI media incubated at 37° C. Aliquots were analyzed by HPLC and the peaks integrated.
FIGS. 5A-5J illustrate the finding that installation of a boronate cage cleavable by H2O2 stabilizes the 1,3-dioxane acetal protective group of D-F07 to allow for temporal inhibition of XBP-1s upon contact with H2O2. (FIG. 5A) A scheme showing that installation of a boronate-caged group stabilizes the 1,3-dioxane acetal protective group to allow for H2O2-mediated release of intact D-F07. (FIG. 5B) The fluorescence of BC-D-F07a (2.5 μM in the DMSO/PBS solution (v/v=1:99), Ex=360 nm) increases upon incubation with 0 to 200 μM hydrogen peroxide at room temperature for 1 h. (FIG. 5C) The fluorescence of BC-D-F07b (2.5 μM in the DMSO/PBS solution (v/v=1:99), Ex=360 nm) increases upon incubation with 0 to 2 mM hydrogen peroxide at 37° C. for 1 h. […] I0 was the initial fluorescence intensity of D-F07, BC-D-F07a or BC-D-F07b at 0 h. (FIG. 5E) The levels of hydrogen peroxide produced by 5TGM1, 72-h LPS-stimulated primary CLL, MEC2, and WaC3 cells were measured by Amplex Red with or without the addition of extracellular catalase (500 U/mL). (FIG. 5F) 5TGM1 cells were treated with BC-D-F07a at increasing concentrations for 24 h, lysed, and analyzed for the expression of indicated proteins by immunoblots. (FIG. 5G) CD5+ CLL cells purified from spleens of Eμ-TCL1 mice were stimulated with […], subsequently treated with BC-D-F07a at 20 μM for 16 h, and then incubated with hydrogen peroxide at indicated concentrations for another 4 h. Cells were lysed and analyzed for the expression of indicated proteins by immunoblots. […] Cells were lysed and analyzed for the expression of indicated proteins by immunoblots. […] Percentages of growth were determined by comparing treated groups with control groups (DMSO). […]
UV-vis and fluorescence spectra were carried out on a BioTek SYNERGY™ NEO2 instrument (96 well plate).

[6] = tested on: MEC2 cells; assay: Cell proliferation XTT assay, MEC2; assay type: cell-based, human
[7] = Solubility in organic solvent (DMSO); assay type: physicochemical; conditions: such as DMSO
[8] = tested on: WaC3 cells; assay: Cell proliferation XTT assay, WaC3; assay type: cell-based, human; conditions: 20 μM for a course of 3 days
[9] = In vivo pharmacokinetics, serum fluorescence; design: species or system Eμ-TCL1 mouse; conditions: single intraperitoneal injection of 58 mg/kg D-F07
Description: In vivo pharmacokinetics studies were carried out by intraperitoneally injecting 58 mg/kg D-F07 (347.36 Daltons) or 96 mg/kg TC-D-F07 (577.52 Daltons) into each Eμ-TCL1 mouse to achieve equivalent molar concentrations in the sera. Blood was collected via submandibular bleeding into an Eppendorf tube at 0.25-, 0.5-, 1-, and 1.5-h time points after a single injection. Blood samples were stored at room temperature for 5 min, placed on wet ice for 5 min, and centrifuged at 15,000 rpm/min for 5 min to obtain sera. D-F07 in sera was quantified by measuring the fluorescence intensity using a BioTek SYNERGY™ NEO2 Multimode Reader (Ex/Em: 350/456 nm). Each fluorescent reading value was adjusted by subtracting the background from serum samples without D-F07. D-F07 concentrations were calculated by fitting individual data points in a linear standard equation, y=bx+c. The D-F07 standard curve was created by measuring the fluorescence intensity in serum samples containing serially diluted D-F07. Data derived from three mice receiving the same treatment were plotted as means±SEM.

COc1cc2c3c(c(=O)oc2c(C2OCCCO2)c1OCc1ccc(B2OC(C)(C)C(C)(C)O2)cc1)CN(C)CC3 [BC-D-F07a, 7-(1,3-dioxan-2-yl)-9-methoxy-3-methyl-8-((4-(4,4,5,5-tetramethyl-1,3,2-dioxaborolan-2-yl)benzyl)oxy)-1,2,3,4-tetrahydro-5H-chromeno[3,4-c]pyridin-5-one]
suppression of XBP-1s ([1]; increasing concentrations, 24 h): dose-dependent suppression of XBP-1s
suppression of XBP-1s expression [2]: suppress the expression of XBP-1s
suppression of XBP-1s [3]: more efficient suppression of XBP-1s
growth suppression (XTT) ([4]; 20 μM for 2 days): could not efficiently oxidize BC-D-F07a, inhibit XBP-1s, or suppress cell growth
hydrolysis of 1,3-dioxane acetal by fluorescence decay [5]: stabilized the 1,3-dioxane acetal protecting group
growth inhibition (XTT) ([6]; 20 μM for 2 days): less capable than D-F07 in inhibiting growth of MEC2 cells

COc1cc2c3c(c(=O)oc2c(C2OCCCO2)c1O)CNCC3 [Compound 11, 7-(1,3-dioxan-2-yl)-8-hydroxy-9-methoxy-1,2,3,4-tetrahydro-5H-chromeno[3,4-c]pyridin-5-one]
suppression of XBP-1s expression, long term [1]: more potent than 4 in suppressing XBP-1s expression; also recorded: less potent than D-F07 in suppressing the expression of XBP-1s
solubility relative to 4 [7]: at least 16 times less soluble

COc1cc2c3c(c(=O)oc2c(C2OCCCO2)c1O)CN(C)CC3 [D-F07, 7-(1,3-dioxan-2-yl)-8-hydroxy-9-methoxy-3-methyl-1,2,3,4-tetrahydro-5H-chromeno[3,4-c]pyridin-5-one]
suppression of XBP-1s after removal of compound from media ([1]; 10 μM 4 h, washed, UV 10 min, 8 h culture): failed to suppress XBP-1s continuously
suppression of XBP-1s expression, long term [1]: better long-term efficacy in suppressing the expression of XBP-1s than 7 and 10
overall comparison of inhibition of IRE-1 / XBP-1s expression in whole cells ([1]; summary statement): most potent effect in inhibiting the expression of XBP-1s in whole cells
growth suppression (XTT) [8]: initially more potent than 7 and 8 in suppressing WaC3 cell growth; also recorded: suppressed WaC3 cell growth potently
growth inhibition / cytotoxicity (XTT) ([4]; 20 μM for a course of 3 days): higher cytotoxicity than 3 and 7
peak serum concentration [9]: 10203 ng/mL
cytotoxicity / growth inhibition (XTT) ([6]; indicated concentrations, 24 h): not cytotoxic to MEC2 cells
